Values joined by “and” are separate entries in the source; they are usually repeats but may differ in a detail not shown here. Equal values may be shown once. “Also recorded” adds a separate entry of the source.
Key:
prethrombin-2 [1] = biological target: T1, prethrombin-2 (Homo sapiens, UniProt P00734, S568A); assay: Stopped-flow rapid kinetics of FPR binding to the active site
T1 construct: the protease domain (T272-E579); made in house
Description: (§1) Rapid kinetic experiments were conducted on an Applied Photophysics SX20 stopped-flow spectrometer under conditions of excess ligand. The dead time of the mixing cell for this instrument is 0.5–1 ms. Final concentrations of 50–75 nM of thrombin and meizothrombin, or 200–400 nM of prothrombin, prethrombin-1 and prethrombin-2 were used in a buffer containing 400 mM ChCl, 50 mM Tris, 0.1% PEG8000, pH 8.0, at 15 °C. The solution containing the protein was mixed 1:1 with 60 µL solutions of FPR in the same buffer. FPR is the […] analog of the irreversible active site inhibitor H-D-Phe-Pro-Arg-CH2Cl, for which detailed structural information exists on its interaction with the active site of thrombin[47],[61]. Rapid kinetics of FPR binding were studied using an excitation of 295 nm and a cutoff filter at 320 nm. Baselines were measured by mixing the protein into buffer in the absence of ligand. Each kinetic trace for a given ligand concentration was taken as the average of a minimum of six determinations. Traces were fit to single or double exponentials based on the analysis of residuals using software supplied by Applied Photophysics.
(§2) A detailed discussion of ligand binding mechanisms established by rapid kinetics is given elsewhere[25]–[27]. and is briefly summarized below for the sake of completeness. The relevant kinetic scheme for ligand binding to the active site of a trypsin-like protease or zymogen is1 E^∗k12←⟶k21Ekon[L]←⟶koffE:L E* and E depict the partitioning of the ensemble of pre-existing conformations between those with the active site accessible (E) or inaccessible (E*) to ligand binding. The ligand, L, selectively binds to E with a second order rate of association kon. Under conditions where L is in large excess over the macromolecule, the reaction scheme in eq. 1 gives two independent rates of relaxation to equilibrium according to the expression2 2α1,2=k12+k21+kon[L]+koff±(kon[L]+koff−k12−k21)^2+4k21kon[L]
(§3) The fast relaxation, α1, always increases and eventually grows linearly with [L]. Depending on the sign of the expression koff−k12 , the value of the slow relaxation α2 hyperbolically decreases ( koff>k12 ) or increases ( koff<k12 ) with [L], and remains constant when koff=k12 [25]–[27]. The fast relaxation that eventually grows linearly with [L] reflects the binding event. The slow relaxation monitors the conformational transition associated with binding.
(§4) Resolution of all four independent rate constants in the reaction scheme in eq. 1 requires measurements of both relaxations. […] 2 can be resolved unequivocally. When α2 decreases hyperbolically with [L], the lower limit in the plot, α2(0) , measures the value of koff or the sum k12+k21 , whichever is smaller. The upper limit α2(∞) measures the rate for the E* → E transition k12. […] If only α2 is accessible to experimental measurements, estimation of the E*:E ratio requires additional information from the apparent equilibrium dissociation constant3 Kd,app=koff/kon(1+k21/k12)=Kd(1+k21/k12)
(§5) defined in terms of the intrinsic equilibrium dissociation constant, Kd, and the E*:E ratio k21/k12. Direct and independent determination of Kd,app can be obtained by fluorescence titrations under the same experimental conditions used for stopped-flow measurements. The definition of Kd,app in eq. 3 leads to three useful expressions, i.e.,4 kon≥α22(0)/α2(∞)Kd,app when α2 decreases hyperbolically with [L] as in the case of prothrombin (Fig. 3A),5 kon=α2(0)[α2(∞)+k21]/α2(∞)Kd,app=α2(0)/Kd,app+α2(0)/α2(∞)Kd,appk21 when α2 increases hyperbolically with [L] as in the case of prethrombin-2 (Fig. 3A), and6 kon=α2(0)+k21/Kd,app=α2(0)/Kd,app+1/Kd,appk21 when α2 is independent of [L] as in the case of prethrombin-1 (Fig. 3A). The expression in eq. 4 yields a direct estimate of the lower limit of kon from which the value of k21 and the E*:E ratio can be arrived at with the help of eq. 3 (Table 1). […]

prethrombin-1 [2] = biological target: T2, prethrombin-1 (Homo sapiens, UniProt P00734, S568A); assay: as above
T2 construct: generates the intermediate prethrombin-1 (Pre1) composed of kringle-2 and the protease domain; made in house
Description: as §1, §2, §3, §4, §5

prothrombin [3] = biological target: T3, prothrombin (Homo sapiens, UniProt P00734, S568A); assay: as above
T3 construct: Gla-domain (A1-A46), kringle-1 (C65-C143), kringle-2 (C170-C248) and the protease domain (T272-E579); made in house
Description: as §1, §2, §3, §4, §5

thrombin [4] = biological target: T4, thrombin (Homo sapiens, UniProt P00734, S568A); assay: as above
T4 construct: the protease domain composed of the A and B chains; made in house
Description: as §1, §2, §3, §4

meizothrombin [5] = biological target: T5, meizothrombin (Homo sapiens, UniProt P00734, S568A); assay: as above
T5 construct: Cleavage at R320 retains the modular structure of prothrombin and generates the active intermediate meizothrombin; Cleavage at R320 generates the active intermediate meizothrombin that retains the modular organization of prothrombin; made in house
Description: as §1, §2, §3, §4

prethrombin-2 [6] = biological target: T1, prethrombin-2; assay: Equilibrium intrinsic fluorescence titration of FPR binding; details: pH 8.0, 15 °C, read-out: Kd,app (direct fluorescence titration)
Source text: (§6) defined in terms of the intrinsic equilibrium dissociation constant, Kd, and the E*:E ratio k21/k12. Direct and independent determination of Kd,app can be obtained by fluorescence titrations under the same experimental conditions used for stopped-flow measurements. The definition of Kd,app in eq. 3 leads to three useful expressions, i.e.,4 kon≥α22(0)/α2(∞)Kd,app when α2 decreases hyperbolically with [L] as in the case of prothrombin (Fig. 3A),5 kon=α2(0)[α2(∞)+k21]/α2(∞)Kd,app=α2(0)/Kd,app+α2(0)/α2(∞)Kd,appk21 when α2 increases hyperbolically with [L] as in the case of prethrombin-2 (Fig. 3A), and6 kon=α2(0)+k21/Kd,app=α2(0)/Kd,app+1/Kd,appk21 when α2 is independent of [L] as in the case of prethrombin-1 (Fig. 3A). The expression in eq. 4 yields a direct estimate of the lower limit of kon from which the value of k21 and the E*:E ratio can be arrived at with the help of eq. 3 (Table 1). The expressions in eqs 5 and 6, on the other hand, require assumptions to be made on the value of kon to arrive at the value of k21. In both cases, a lower limit for kon is estimated as kon≥α2(0)/Kd,app .

thrombin [7] = biological target: T4, thrombin; assay: as above; details: for Kd: thrombin
Source text: as §6

prethrombin-1 [8] = biological target: T2, prethrombin-1; assay: as above; details: pH 8.0, 15 °C, read-out: Kd,app (direct fluorescence titration)
Source text: as §6

meizothrombin [9] = biological target: T5, meizothrombin; assay: as above
Source text: as §6

prothrombin [10] = biological target: T3, prothrombin; assay: as above; details: 400 mM ChCl, 50 mM Tris, 0.1% PEG8000, pH 8.0, 15 °C, read-out: Kd,app (direct fluorescence titration)
Source text: as §6

prothrombin mutant R271W = prothrombin mutant R271W (Homo sapiens, UniProt P00734, R314W); assay: Limited proteolysis by chymotrypsin in the absence or presence of argatroban; format: biochemical
Source text: (§7) Aliquots of proteolysis mixtures were quenched whit NuPAGE LDS buffer and analyzed by non-reducing SDS-PAGE (4–12% acrylamide). None of the gels were cropped and originals are available in the Supplementary Information. The relative intensity of intact protein gel bands, after Coomassie staining, was estimated by densitometric analysis and fit to single exponential decay over time.

prothrombin mutant R320W = prothrombin mutant R320W (Homo sapiens, UniProt P00734, R363W); assay: as above; format: biochemical
Source text: as §7

prethrombin-2 [11] = biological target: prethrombin-2 (Homo sapiens, UniProt P00734); assay: Limited proteolysis by subtilisin in the absence or presence of argatroban; format: biochemical; details: argatroban 500 μM; pH 7.4, 37 °C
Source text: as §7

thrombin [12] = biological target: thrombin (Homo sapiens, UniProt P00734); assay: as above; format: biochemical; details: argatroban 500 μM; pH 7.4, 37 °C
Source text: as §7

prothrombin [13] = biological target: prothrombin (Homo sapiens, UniProt P00734); assay: as above; format: biochemical; details: argatroban 500 μM
Source text: as §7

[14] = active site Ser replaced by Ala, E*→E rate, pH 8.0, 15 °C
[15] = from rate constants, read-out: Kd,app (calculated from eq. 3)
[16] = pH 8.0, 15 °C, read-out: Kd,app (direct fluorescence titration)

## N=C(N)NCCC[C@H](NC(=O)[C@@H]1CCCN1C(=O)[C@H](N)Cc1ccccc1)C(=O)Nc1ccc([N+](=O)[O-])cc1 [FPR, H-D-Phe-Pro-Arg-p-nitroanilide]
prethrombin-2 [1]; prethrombin-2, catalytic Ser replaced by Ala, E*→E rate, pH 8.0, 15 °C
  k12: 170 ± 10 s⁻¹
prethrombin-2 [1]; prethrombin-2, lower estimate from eq. 5, pH 8.0, 15 °C
  kon: ≥930000 ± 80000 M⁻¹ s⁻¹
prethrombin-2 [1]; prethrombin-2, pH 8.0, 15 °C
  koff: 27 ± 2 s⁻¹
prethrombin-2 [1]; prethrombin-2, under the assumption that kon = 1.5 μM^−1 s^−1, read-out: Kd,app (calculated from eq. 3)
  Kd: ≥ 29000 nM
prethrombin-1 [2]; prethrombin-1, catalytic Ser replaced by Ala, E*→E rate, pH 8.0, 15 °C
  k12: 42 ± 2 s⁻¹
prethrombin-1 [2]; prethrombin-1, lower estimate from eq. 6, pH 8.0, 15 °C
  kon: ≥460000 ± 50000 M⁻¹ s⁻¹
prethrombin-1 [2]; prethrombin-1, pH 8.0, 15 °C
  koff: 42 ± 2 s⁻¹
prethrombin-1 [2]; prethrombin-1, under the assumption that kon = 1.5 μM^−1 s^−1, read-out: Kd,app (calculated from eq. 3)
  Kd: ≥ 92000 nM
Prothrombin [3]; E→E* rate, same buffer, pH 8.0, 15 °C
  k21: ≥38 ± 3 s⁻¹
Prothrombin [3]; catalytic Ser replaced by Ala, E*→E rate, 400 mM ChCl, 50 mM Tris, 0.1% PEG8000, pH 8.0, 15 °C
  k12: 6.9 ± 0.3 s⁻¹
Prothrombin [3]; from rate constants, pH 8.0, 15 °C, read-out: Kd,app (calculated from eq. 3)
  Kd: ≥ 200000 nM
Prothrombin [3]; koff ≥ α2(0), pH 8.0, 15 °C
  koff: ≥45 ± 5 s⁻¹
Prothrombin [3]; lower estimate from eq. 4, pH 8.0, 15 °C
  kon: ≥1.5e+06 ± 100000 M⁻¹ s⁻¹
Prothrombin [3]; the smaller between koff or the sum k12 + k21
  α2(0), limiting value of the slow relaxation: 45 ± 5 s⁻¹
Thrombin [4]; E→E* rate, pH 8.0, 15 °C
  k21: 3.8 ± 0.8 s⁻¹
Thrombin [4]; [14]
  k12: 16 ± 1 s⁻¹
Thrombin [4]; [15]
  Kd: 290 ± 20 nM
Thrombin [4]; pH 8.0, 15 °C
  koff: 0.6 ± 0.1 s⁻¹
  kon: 2.6e+06 ± 300000 M⁻¹ s⁻¹
Meizothrombin [5]; E→E* rate, pH 8.0, 15 °C
  k21: 3.4 ± 0.7 s⁻¹
Meizothrombin [5]; [14]
  k12: 8.8 ± 0.5 s⁻¹
Meizothrombin [5]; [15]
  Kd: 440 ± 30 nM
Meizothrombin [5]; pH 8.0, 15 °C
  koff: 0.8 ± 0.1 s⁻¹
  kon: 2.5e+06 ± 300000 M⁻¹ s⁻¹
prethrombin-2 [6]
  Kd: 29000 ± 2000 nM
Thrombin [7]; ratio of Kd,app, thrombin vs prothrombin
  higher affinity of thrombin compared to prothrombin: 700 fold
Thrombin [7]; [16]
  Kd: 280 ± 20 nM
Thrombin [7]; read-out: Kd,app from equilibrium measurements of intrinsic fluorescence titration
  Kd: 280 ± 20 nM
prethrombin-1 [8]
  Kd: 92000 ± 8000 nM
Meizothrombin [9]; [16]
  Kd: 510 ± 40 nM
Meizothrombin [9]; read-out: Kd,app from equilibrium measurements
  Kd: 510 ± 40 nM
Prothrombin [10]
  Kd: 190000 ± 20000 nM

## CC1CNc2c(cccc2S(=O)(=O)N[C@@H](CCCNC(=N)N)C(=O)N2CC[C@@H](C)C[C@@H]2C(=O)O)C1 (some centres unmarked) [argatroban]
Prothrombin mutant R271W; R271W 0.1 mg/ml, argatroban 500 μM, chymotrypsin 1:50 (w/w), pH 7.4, 37 °C
  kexp of chymotrypsin hydrolysis in the presence of argatroban: 0.027 ± 0.004 min⁻¹
Prothrombin mutant R271W; R271W, presence vs absence of argatroban
  enhancement of the rate of chymotrypsin hydrolysis: 3 fold and > 3 fold
Prothrombin mutant R320W; R320W 0.1 mg/ml, argatroban 500 μM, chymotrypsin 1:50 (w/w), pH 7.4, 37 °C
  kexp of chymotrypsin hydrolysis in the presence of argatroban: 0.035 ± 0.007 min⁻¹
Prothrombin mutant R320W; R320W, presence vs absence of argatroban
  enhancement of the rate of chymotrypsin hydrolysis: 3 fold and > 3 fold
prethrombin-2 [11]
  effect on subtilisin digestion of prethrombin-2: much less pronounced than that of prothrombin
Thrombin [12]
  effect on subtilisin digestion of thrombin: practically absent; also recorded: no effect
Prothrombin [13]; non-reducing SDS-PAGE
  effect on products of subtilisin proteolysis of prothrombin: prevents accumulation of prethrombin-1
Prothrombin [13]; pH 7.4, 37 °C
  effect on the rate of proteolytic digestion of prothrombin by subtilisin: significantly enhanced
Prothrombin [13]; subtilisin 1:1000 (w/w), pH 7.4, 37 °C, densitometry
  enhancement of the rate of prothrombin digestion by subtilisin: > 10 fold

Source: publication PMC5840343, “Interplay between conformational selection and zymogen activation” (Scientific Reports, 2018)
